From the NIST ThermoML archive (doi:10.1016/j.jct.2004.09.007)

Assay: molar heat capacity at constant pressure; xn = mol fraction of the nth substance listed
Conditions: 101.3 kPa, Liquid, Large sample (1 g) DSC

CC(O)CCO (configuration not stated) [1,3-butanediol] + CCCCO
molar heat capacity at constant pressure [J/K/mol]
Conditions	x1 = 0.189	x1 = 0.2983	x1 = 0.436	x1 = 0.5902	x1 = 0.7056	x1 = 0.8961	x1 = 1
318.15 K	–	–	–	216.77	221.57	228.97	232.6
320.65 K	201.89	206.47	212.31	218.48	223.19	230.61	234.14
323.15 K	203.75	208.15	214.02	220.21	224.86	232.26	235.83
325.65 K	205.57	210.02	215.77	221.9	226.54	233.95	237.52
328.15 K	207.42	211.77	217.34	223.44	228.18	235.52	239.08
330.65 K	209.47	213.61	219.1	225.17	229.9	237.35	240.59
333.15 K	211.36	215.41	220.86	226.84	231.42	238.77	242.28
335.65 K	213.23	217.15	222.54	228.47	232.95	240.35	243.86
338.15 K	215.01	218.85	224.14	229.97	234.44	241.71	245.11
340.65 K	217.62	220.95	226.11	231.92	236.35	243.67	247.19
343.15 K	219.25	222.78	227.81	233.46	237.95	245.19	248.62
345.65 K	221.09	224.51	229.58	235.21	239.85	246.7	250.13
348.15 K	223.12	226.46	231.31	236.83	241.5	248.27	251.66
350.65 K	224.98	228.29	232.97	238.43	242.73	249.77	253.24
353.15 K	227.13	230.3	234.85	240.2	244.5	251.52	254.86
